Data: patent publication US4694011A, “Novel 7-hydroxy-indoles” (Roussel Uclaf, priority 1985, dated 1987)

Assays:
mice = experiment: Acute toxicity; assay type: in vivo; conditions: oral administration
Method: The lethal doses LD50 of the different compounds tested were evaluated after oral administration to mice and LD0 is the maximum dose not causing any mortality in 8 days.

[1] = tested on: average arterial pressure; experiment: Test for direct vasodilatory activity of vascular relaxing postsynaptic activity (demedullated rats, angiotensine II); assay type: in vivo, rat (Sprague-Dawley)
Method: D. Test for Direct Vasodilatary Activity of Vascular Relaxing Postsynaptic-activity
Rats of the Sprague-Dawley strain weighing 320-350 g were anesthetized with pentobarbital (50 mg/kg by intraperitoneal injection) and after the positioning of a carotidien catheter to measure the arterial pressure and a jugular catheter for the injection of the test compounds and possible antagonists, the animals were demedullated with a steel rod. This rod was introduced by the right orbital orifice and descended the length of the spinal cord. The animals were then immediately placed under assisted respiration and a few minutes after the arterial pressure was stabilized, the animals received an intravenous perfusion of angiotensine II of […] to increase their average pressure by about 100 mm of mercury. After a plateau was reached, the test substance was injected intravenously every 2 minutes and in cumulated doses. The percentage drop in the average arterial pressure obtained enabled a dose-response curve to be traced reflecting the vasodilatary activity of the compound studied. The preliminary treatment of the animals with different antagonists enabled the mechanism of action of the compound to be determined. The products were tested between 0.001 and 1 mg/kg and Domperidone and propanolol were used as antagonists.

[2] = tested on: force of cardiac contraction; experiment: Positive inotropic activity; assay type: in vivo, rat (Sprague-Dawley); conditions: 10 to 100 mg/kg
Method: E. Positive inotropic activity
Rats of Sprague-Dawley strain weighing 300 to 350 g were anesthetized with pentobarbital (50 mg/kg by intraperitoneal injection) and a catheter was placed in the left ventricle to measure the cardiac intraventricular pressure and the dP/dt VG (or rate of variation of the intraventricular pressure). A second arterial catheter placed in the femoral artery enabled the systemic arterial pressure and the cardiac frequency to be registered. The test products and the possible antagonists were injected by a catheter placed in a jugular vein. This model enabled the effect of various substances on the force of cardiac contraction to be evaluated in vivo as a function of the dose and the time.

[3] = tested on: dopaminergic agonist action at the central level; experiment: Stereotype behavior; assay type: in vivo, rat; conditions: male rats, intraperitoneal, 50 mg/kg
Method: The tests were carried out on groups of 5 male rats weighing 150 to 180 g and each animal was placed individually in a barred cage (29×25×17 cm) containing a few wood shavings. The test product was administered intraperitoneally and the behavior of the animals was noted every half-hour for 5 hours with the rating of Halliwell et al [Brit. J. Pharmacol. 1964, Vol. 23, 330-350]. The animal was asleep (0), it was awake but immobile (1), it turned in the cage (2), it sniffed the cover (3), it licks the walls (4), it touched the wood shavings or the bars of the cage with its teeth (5), it bit the shavings or the bars of the cage (6).

arterial pressure = experiment: Hypotensive activity (arterial pressure, anesthetized rats); assay type: in vivo, rat (WISTAR); conditions: male WISTAR rats anesthetized with nembutal, intravenous, 1 mg/kg
Method: The hypotensive activity was studied on male rats of the WISTAR strain weighing about 300 g and anesthetized with nembutal (50 mg/kg by intraperitoneal route). The product tested was administered intravenously into the jugular vein and the carotidien arterial pressure was measured before and after administration of the product tested.

[4] = tested on: dopaminergic stimulating activity at the central level; experiment: Rotation behavior after unilateral lesion of the nigra-striated bundle by 6-hydroxydopamine; assay type: in vivo, rat; conditions: male rats, intraperitoneal, 5 mg/kg
Method: A. Rotation behavior after unilateral lesion of the nigra-striated bundle by 6-hydroxydopamine
Male rats weighing about 220 g were injured in the nigra-striated dopaminergic bundle by Ungerstedt's method [Acta physiol. Scand. 1971, Vol. 82 suppl. p. 367-69 93] modified by unilateral injection of 9.2 μg of 6-hydroxydopamine hydrochloride in solution in 4 μl of physiological solution containing 0.5 mg/ml of ascorbic acid. The test products were administered intraperitoneally and the animals treated, on average 6, were placed individually in a rotometer which enabled the counting of the number of rotations carried out by each animal in the opposite direction to the injured side.

[5] = tested on: pressure responses to the electrical stimulation; experiment: Presynaptic activity at the vascular level; assay type: in vivo, rat (Sprague-Dawley); conditions: demedullated Sprague-Dawley rats
Method: F. Presynaptic activity at the vascular level
Rats of Sprague-Dawley strain weighing 320-350 g were anesthetized with pentobarbital (50 mg/kg by intraperitoneal injection) and after insertion of a carotidien catheter to measure the arterial pressure and a jugular catheter for the injection of the test compounds, the animals were demedullated with a stainless steel rod introduced by the right orbitary orifice. This rod was insulated along its length with the exception of the last five centimeters. As soon as the medulla was destroyed, the animals were placed under assisted respiration. After a period of rest of about 20 minutes, the animals were submitted to electrical stimulations applied between the demedullation rod and a neutral electrode placed under the skin in the thigh region with impulses of 2 msec., frequency of 10 Hz and amplitude of about 20 V for 30 sec. for 5 minutes each. […] The addition of appropriate blockers and the combination of this technique with the modification of dose-response curves to vasoconstricting agents such as noradrenaline enabled the pharmacological profile of the test compound to be determined.

[6] = anesthetized Sprague-Dawley rats, jugular vein

Row | Compound | LD0 (maximum dose not causing any mortality in 8 days) (mice) | origin of the vasodilator effect (mechanism) ([1]; Domperidone and propanolol used as antagonists) | minimal effective dose ([1]; Rattus norvegicus, demedullated Sprague-Dawley rats, angiotensine II perfusion, intravenous cumulated doses, tested between 0.001 and 1 mg/kg, read-out: dose from which a dose dependent vasodilator effect occurs) | positive inotropic effect (conclusion) [2] | blockade by propanolol of the increase of dP/dt and maximal ventricular pressure ([2]; with propanolol) | dP/dt (rate of variation of the intraventricular pressure) [2, 6] | maximal ventricular pressure [2, 6] | central dopaminergic agonist action (conclusion from stereotype test) [3] | stereotype movements ([3]; noted every half-hour for 5 hours) | effect on carotidien arterial pressure (arterial pressure) | central dopaminergic stimulating activity (conclusion from rotation test) [4] | rotations in the opposite direction to the injured side ([4]; at least ninety minutes) | site of action linked to the reduction of the responses [5] | pressure responses to the electrical stimulation ([5]; intravenous) | blockade by sulpiride of the reduction of the responses ([5]; with sulpiride)
1 | Br.O=C1Cc2c(C3CCCNC3)ccc(O)c2N1 (stereo not shown) [Example 3, 1,3-dihydro-7-hydroxy-4-(3-piperidinyl)-2H-indol-2-one hydrobromide] | 400 mg/kg | of dopaminergic and α-adrenergic origin | ≥ 0.001 mg/kg | possessed positive inotropic properties | not otherwise blocked by propanolol | increase of the dP/dt | increase of the dP/dt and of the maximal ventricular pressure | substantially deprived of dopaminergic agonist action at the central level | practically no stereotype movements | slight effect on the arterial pressure | substantially deprived of dopaminergic stimulating activity at the central level | practically no rotations | essentially post-synaptic activity | reduction of the responses | not blocked by sulpiride
2 | Br.CCCN1CCCC(c2ccc(O)c3c2CC(=O)N3)C1 (stereo not shown) [Example 4, 1,3-dihydro-7-hydroxy-4-(1-propyl-3-piperidinyl)-2H-indol-2-one hydrobromide] | 400 mg/kg |  |  |  |  |  |  |  |  |  |  |  |  |  | 
